Test results from patent US8268823B2, “Medical use of triazine derivatives” (University of Greenwich, priority 2006, dated 2012).
“And” between values parts separate entries of the source, which are not always exact repeats. Identical values can stand only once. Counter-ions that a name gives are not always drawn. Like-named read-outs stand apart in the source and are kept apart here.

Key:
[1] = tested on: sodium channel; type: binding, rat
[2] = biological target: T1, DiHydroFolate Reductase (DHFR) (Rattus norvegicus, UniProt Q920D2); experiment: inhibition of binding of [3H]methotrexate to rat liver homogenate supernatant; conditions: for IC50: rat liver supernatant
T1 construct: from tissue; host or cells: rat liver homogenate supernatant (47,500 x g)
T1 sequence (Q920D2 1-187): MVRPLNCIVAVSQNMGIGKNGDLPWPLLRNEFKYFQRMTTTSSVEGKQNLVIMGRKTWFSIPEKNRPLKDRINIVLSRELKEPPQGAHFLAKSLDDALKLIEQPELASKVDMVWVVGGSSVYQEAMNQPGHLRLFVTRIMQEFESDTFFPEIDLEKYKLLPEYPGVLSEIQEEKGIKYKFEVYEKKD
Procedure: All steps were carried out at 4° (or on ice). Freshly dissected rat liver was dissected into 0.25M ice-cold Sucrose and subsequently homogenised (U-turrax) in 50 mM pH 6.0 phosphate buffer (10 ml/g tissue) containing 15 mM Dithiothreitol. The resulting homogenate was centrifuged @ 47,500×g for 20 min and supernatant (filtered through cotton wool to remove fatty lumps) stored @-80° before use (Rothenberg et al).
The binding reaction was stopped by the addition of 50 μl of a charcoal suspension (consisting of charcoal, Bovine Serum Albumin and Dextran present in a weight ratio of 100:4:1 suspended in 50 mM pH 6.0 phosphate buffer. Samples were vortexed, allowed to stand for 2 minutes and charcoal was precipitated by microcentrifugation @ full speed for 5 min. Aliquots of clear supernatant were transferred to counting vials containing liquid scintillant for measurement of radioactivity using Liquid Scintillation Spectroscopy.
Percentage inhibition values were calculated by comparison to this value.
(§1) Data are presented as mean±sem of number of experiments indicated in brackets.

[3] = tested on: 0.4 mm slices of rat hippocampus; experiment: hippocampal slice assay: ATP after iodoacetate metabolic insult; conditions: for Emax: read-out: Max Protection (% v TTX)
[4] = tested on: sodium channel; experiment: veratrine-evoked uptake of [14C]guanidine into rat forebrain synaptosomes ([14C]guanidine flux); type: biochemical
Procedure: The screening strategy is designed to select compounds with appropriate sodium channel blocking activity and low side effect liability. To this end all compounds are processed through the primary sodium channel assay (veratrine-evoked uptake of [^14C]guanidine into rat forebrain synaptosomes) and IC50 values computed from generated concentration-effect curves.
Synaptosomes (heavy and light mitochondrial fraction containing synaptosomes) were prepared by transferring the forebrain (of known wet weight) to a glass Potter vessel to which 9 volumes ice-cold 0.25M sucrose had been added and homogenising, using a teflon pestle, by 8 ‘up and down strokes’ of a Braun Potter S motor driven homogeniser set to 900 rpm. The resulting homogenate was centrifuged at 1036×g at 4° for 10 min and the supernatant collected. The remaining pellet was resuspended, as above, in fresh ice-cold 0.25M sucrose and the centrifugation step repeated. The supernatant fractions were pooled and centrifuged at 40,000×g (average) at 4° for 15 min and the resulting pellet resuspended in the appropriate assay buffer at a concentration of 20-25 mg wet weight per ml appropriate assay buffer.
Both assays were carried out using 14 ml polypropylene test tubes to which a range of concentrations of the compounds under test were added.
Compounds under test were pre-incubated for 10 min at 30° in incubation buffer (50 mM pH 7.4 HEPES (adjusted to pH 7.4 with Tris base), 130 mM choline chloride, 5.5 mM D-glucose, 0.8 mm MgSO4 and 5 mM KCl) containing 7.5 mg original wet weight of tissue and 100 μg veratrine HCl in a final volume of 0.5 ml. […] A further 2×5 ml of ice-cold wash buffer was added to each tube and the vacuum filtration step repeated. The GF/C glass fibre filters were transferred to minivials and 4 ml Picofluor^40 liquid scintillant added using a Brandel™ deposit/dispense system. Radioactivity was measured using a Beckman Liquid Scintillation Counter.
as §1

[5] = biological target: T2, hERG potassium channel (Homo sapiens, UniProt Q12809); experiment: inhibition of binding of [3H]astemizole to cell membranes expressing hERG
T2 sequence (Q12809 whole entry): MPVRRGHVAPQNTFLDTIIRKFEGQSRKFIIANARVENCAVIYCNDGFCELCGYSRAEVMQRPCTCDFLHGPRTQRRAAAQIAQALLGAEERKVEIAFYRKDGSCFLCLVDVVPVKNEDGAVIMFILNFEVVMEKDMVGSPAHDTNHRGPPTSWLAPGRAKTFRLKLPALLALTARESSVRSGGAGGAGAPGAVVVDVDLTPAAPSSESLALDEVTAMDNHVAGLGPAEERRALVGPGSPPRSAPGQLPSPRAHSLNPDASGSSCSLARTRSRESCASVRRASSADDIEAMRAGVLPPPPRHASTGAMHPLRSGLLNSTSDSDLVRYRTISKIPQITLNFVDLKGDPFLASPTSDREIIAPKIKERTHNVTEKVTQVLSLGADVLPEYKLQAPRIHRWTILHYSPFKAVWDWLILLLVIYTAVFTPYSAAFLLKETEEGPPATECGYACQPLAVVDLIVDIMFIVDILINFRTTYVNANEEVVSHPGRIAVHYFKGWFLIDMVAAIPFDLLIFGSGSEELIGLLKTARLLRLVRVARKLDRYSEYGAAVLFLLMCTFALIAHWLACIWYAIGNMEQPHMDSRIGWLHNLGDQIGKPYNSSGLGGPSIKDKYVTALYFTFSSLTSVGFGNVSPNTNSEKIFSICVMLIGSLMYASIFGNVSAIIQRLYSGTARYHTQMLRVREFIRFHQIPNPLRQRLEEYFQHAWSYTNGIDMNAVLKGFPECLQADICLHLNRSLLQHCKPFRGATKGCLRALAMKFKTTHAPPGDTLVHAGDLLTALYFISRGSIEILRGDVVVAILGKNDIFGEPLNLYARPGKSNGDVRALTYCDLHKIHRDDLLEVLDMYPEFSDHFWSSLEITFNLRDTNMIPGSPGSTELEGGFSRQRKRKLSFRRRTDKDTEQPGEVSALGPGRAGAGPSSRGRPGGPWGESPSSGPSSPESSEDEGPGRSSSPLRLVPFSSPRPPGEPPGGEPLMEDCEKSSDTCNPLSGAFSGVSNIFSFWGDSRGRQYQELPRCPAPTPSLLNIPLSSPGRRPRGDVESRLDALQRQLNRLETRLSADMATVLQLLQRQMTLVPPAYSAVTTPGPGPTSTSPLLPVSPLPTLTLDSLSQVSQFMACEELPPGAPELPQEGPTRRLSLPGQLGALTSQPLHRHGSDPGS

[6] = biological target: T2, hERG potassium channel; experiment: in vitro
[7] = Table 4, tissue prep'n Synaptosomes, read-out: [3H]BTX-B binding Mean (IC50: μM)
[8] = read-out: [3H]methotrexate binding Inhibition (% @ assay conc'n), assay concentration 10 μM
[9] = read-out: [3H]methotrexate binding Inhibition (% @ assay conc'n), assay concentration 99 μM
[10] = Rattus norvegicus, read-out: hippocampal slice EC50 (μM)
[11] = Table 3, rat forebrain synaptosomes, read-out: [14C]guanidine flux Mean (IC50: μM)
[12] = Table 5, Synaptosome data, read-out: [3H]BTX-B IC50
[13] = hERG / [3H]BTX-B selectivity, ratio of extrapolated hERG IC50 to [3H]BTX-B IC50 (synaptosomes)
[14] = hERG / [14C]guanidine flux selectivity, ratio of extrapolated hERG IC50 to [14C]guanidine flux IC50
[15] = Rattus norvegicus, read-out: EC50 (max set @ 100)
[16] = Table 5, read-out: [14C]guanidine flux IC50
[17] = Table 4, tissue prep'n Homogenate, read-out: [3H]BTX-B binding Mean (IC50: μM)
[18] = Table 1, synaptosomes, mean ± sem (n), read-out: [3H]BTX-B binding (synaptosomes), mean IC50
[19] = Table 1, mean ± sem (n), read-out: [14C] guanidine uptake (synaptosomes), mean IC50

| SMILES | IC50 [1, 7] [µM] | inhibition at 10 µM [2, 8] [%] | inhibition at 99 µM [2, 9] [%] | Emax ([3]; Rattus norvegicus) [%] | EC50 [3, 10] [µM] | IC50 [4, 11] [µM] | IC50 [5] [µM] | IC50 [1, 12] [µM] | inhibition at 10 µM [6] [%] | selectivity ratio [6, 13] | selectivity ratio [6, 14] | EC50 [3, 15] [µM] | IC50 [4, 16] [µM] | further results |
| --- | --- | --- | --- | --- | --- | --- | --- | --- | --- | --- | --- | --- | --- | --- |
| CCn1nc(-c2cc(Cl)cc(Cl)c2)c(N)nc1=N (as salt: methanesulfonate) [Example 54, 5(3)-Amino-6-(3,5-dichlorophenyl)-2,3(2,5)-dihydro-3(5)-imino-2-ethyl-1,2,4-triazine methanesulfonate] |  |  |  |  |  |  |  |  |  |  |  |  |  | melting point: 217 to 219 °C |
| CCCCn1nc(-c2cccc(Cl)c2Cl)c(N)nc1=N [Example 8, 5(3)-Amino-6-(2,3-dichlorophenyl)-2,3(2,5)-dihydro-3(5)-imino-2-butyl-1,2,4-triazine] | 1.7 | -4 | -2 | 46 | 10 | 2.1 |  |  |  |  |  |  |  |  |
| CCn1nc(-c2cc(Cl)ccc2Cl)c(N)nc1=N (as salt: methanesulfonate) [Example 49, 5(3)-Amino-6-(2,5-dichlorophenyl)-2,3(2,5)-dihydro-3(5)-imino-2-ethyl-1,2,4-triazine methanesulfonate] |  |  |  |  |  |  |  |  |  |  |  |  |  | melting point: 264 to 265 °C |
| Nc1nnc(-c2cc(Cl)cc(Cl)c2Cl)c(N)n1 [Example 31, 6-(2,3,5-trichlorophenyl)-1,2,4-triazine-3,5-diamine] | 21.9 |  |  | 91 ± 4 | 1.8 | 16.2 | 66.9 | 21.9 | 13 | 3.1 | 4.1 | 2.2 | 16.2 | IC50 [2]: 41 ± 4.7 µM |
| Cn1nc(-c2cc(Cl)cc(Cl)c2Cl)c(N)nc1=N [Example 32, 5(3)-Amino-6-(2,3,5-trichlorophenyl)-2,3(2,5)-dihydro-3(5)-imino-2-methyl-1,2,4-triazine] | 1.9 |  |  | 65 ± 7 | 5.9 | 6.4 | 20.3 | 1.9 | 33 | 10.7 | 3.2 |  | 6.4 | IC50 [2]: > 250 µM |
| Cn1nc(-c2ccc(Cl)cc2Cl)c(N)nc1=N (as salt: methanesulfonate) [Example 45, 5(3)-Amino-6-(2,4-dichlorophenyl)-2,3(2,5)-dihydro-3(5)-imino-2-methyl-1,2,4-triazine methanesulfonate] |  |  |  |  |  |  |  |  |  |  |  |  |  | melting point: 283 to 285 °C |
| Cn1nc(-c2cc(Cl)ccc2Cl)c(N)nc1=N (as salt: methanesulfonate) [Example 48, 5(3)-Amino-6-(2,5-dichlorophenyl)-2,3(2,5)-dihydro-3(5)-imino-2-methyl-1,2,4-triazine methanesulfonate] |  |  |  |  |  |  |  |  |  |  |  |  |  | melting point: 297 to 298 °C |
| CCCn1nc(-c2cccc(Cl)c2Cl)c(N)nc1=N [Example 6, 5(3)-Amino-6-(2,3-dichlorophenyl)-2,3(2,5)-dihydro-3(5)-imino-2-propyl-1,2,4-triazine] | 3.6 | 0 | 2 | 81 ± 27 | 10.4 | 2.8 | 2.8 | 2.2 | 78 | 1.3 | 0.6 | 14.5 | 4.8 | IC50 [1, 17]: 0.5 µM |
| CC(C)Cn1nc(-c2cccc(Cl)c2Cl)c(N)nc1=N [Example 7, 5(3)-Amino-6-(2,3-dichlorophenyl)-2,3(2,5)-dihydro-3(5)-imino-2-isobutyl-1,2,4-triazine methanesulfonate] | 1 | -4 | -2 | 47 ± 3 | 1.3 | 2.9 |  |  |  |  |  |  |  |  |
| Nc1nnc(-c2cccc(Cl)c2Cl)c(N)n1 [Example 1, 5(3)-amino-6-(2,3-dichlorophenyl)-2,3(2,5)-dihydro-3(5)-imino-1,2,4-triazine, reference compound] | 76.6 |  |  | 79 | 30.2 | 209 |  | 76.6 |  |  |  | 33.1 | 209 | IC50 [1, 18]: 82.6 ± 2.3 µM; IC50 [1, 17]: 97.9 µM; IC50 [4, 19]: 186 ± 26.5 µM; pIC50 (uptake of [14C]guanidine) ([4]; Table 8, listed as Lamotrigine): 3.75 ± 0.13 and 3.68 ± 0.27; IC50 ([4]; Table 8, listed as Lamotrigine, read-out: IC50 (μM) (uptake of [14C]guanidine)): 178 µM and 209 µM |
| CN1CCN(c2ncc(-c3cc(Cl)cc(Cl)c3Cl)c(N)n2)CC1 [Sipatrigine, reference compound] |  | 0 |  | 90 | 10.7 |  | 1.5 |  |  |  |  | 12.6 |  | inhibition at 198 µM ([2]; read-out: [3H]methotrexate binding Inhibition (% @ assay conc'n), assay concentration 198 μM): -6%; inhibition at 10 µM ([6]; hERG % inhibition @ 10 μM): 87% |
| CCCn1nc(-c2cc(Cl)cc(Cl)c2Cl)c(N)nc1=N [Example 34, 5(3)-Amino-6-(2,3,5-trichlorophenyl)-2,3(2,5)-dihydro-3(5)-imino-2-propyl-1,2,4-triazine] | 0.5 |  |  | 37 | 9.8 | 1.3 | 6.1 | 0.5 | 62 | 12.3 | 4.7 |  | 1.3 | IC50 [2]: > 300 µM |
| CCn1nc(-c2cccc(Cl)c2Cl)c(N)nc1=N [Example 3, 5(3)-Amino-6-(2,3-dichlorophenyl)-2,3(2,5)-dihydro-3(5)-imino-2-ethyl-1,2,4-triazine] | 3.7 |  |  |  |  | 6.4 |  |  |  |  |  |  |  | IC50 [1, 17]: 0.9 µM; [3H]methotrexate binding Inhibition (% @ assay conc'n) ([2]; assay concentration 10 μM): 0%; [3H]methotrexate binding Inhibition (% @ assay conc'n) ([2]; assay concentration 99 μM): 1%; Max Protection (% v TTX) ([3]; compared with the effect of 1 μM TTX = 100% protection): 87.0 % v TTX; EC50 ([3]; read-out: EC50 (max set @ 100), data re-computed setting max @ 100%): 20 µM; EC50 ([3]; read-out: hippocampal slice EC50, protection of ATP after iodoacetate): 16 µM |
| N=c1nc(N)c(-c2cccc(Cl)c2Cl)nn1Cc1ccccc1 [Example 9, 5(3)-Amino-6-(2,3-dichlorophenyl)-2,3(2,5)-dihydro-3(5)-imino-2-phenylmethyl-1,2,4-triazine hemi-methanesulfonate] | 2.2 | 2 | -4 |  | > 30 | 4.8 |  |  |  |  |  |  |  |  |
| Cn1nc(-c2cccc(Cl)c2Cl)c(N)nc1=N [Example 2, 5-amino-6-(2,3-dichlorophenyl)-2,3-dihydro-3-imino-2-methyl-1,2,4-triazine] | 7.2 | 0 | -3 | 98 ± 5 | 36.3 | 35.9 | 73.3 | 7.2 | 12 | 10.2 | 2 | 37.4 | 35.9 | IC50 [1, 18]: 7.4 ± 0.4 µM; IC50 [1, 17]: 2.5 µM; IC50 [4, 19]: 35.9 ± 1.8 µM |
